As usually defined, the IC50 is the concentration at which inhibition is half-maximal. A higher IC50 goes with a need for much substance.

The experiment addresses T1, Human MTHFD2 (Homo sapiens, UniProt P13995).
T1 construct: residues 36-350 in Uniport ID P13995; His6 (N); made in house; host or cells: E. coli
T1 sequence (P13995 36-350): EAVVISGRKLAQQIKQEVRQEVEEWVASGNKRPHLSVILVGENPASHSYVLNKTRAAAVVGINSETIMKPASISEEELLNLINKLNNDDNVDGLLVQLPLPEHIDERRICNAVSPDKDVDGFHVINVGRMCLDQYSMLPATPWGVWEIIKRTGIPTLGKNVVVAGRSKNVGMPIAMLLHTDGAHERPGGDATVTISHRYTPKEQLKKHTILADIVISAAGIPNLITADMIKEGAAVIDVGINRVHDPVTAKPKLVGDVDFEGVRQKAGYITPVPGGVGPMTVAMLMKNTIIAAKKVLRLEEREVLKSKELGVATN
As to the kind of experiment: MTHFD2 Activity Assay (dehydrogenase activity, diaphorase/resazurin coupled fluorescence). The experiment is classed as biochemical. Particulars: inhibitory activity (IC50 and/or binding constant); 0.2 nM MTHFD2, 11 concentrations. The method in brief:
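Resorufin fluorescence (ex 525, em 598 nm) reports NADH formed by the dehydrogenase via diaphorase coupling. Enzyme (0.2 nM, residues 36-350, N-His6) sat with compound 15 min before 70 μM CH2-THF and 1 mM NAD+ started a 30 min reaction. IC50s come from 4-parameter fits over 11 concentrations.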
(In general: Alamar Blue is a resazurin reagent that responds to reducing activity.)
Consider `Cn1c(N[C@H]2CCC[C@H](C(=O)O)C2)nc2c1c(=O)n(Cc1ccc(Cl)c(Cl)c1)c(=O)n2C` (single isomer, unassigned) [Example 209, (1S,3S)-3-(1-(3,4-dichlorobenzyl)-3,7-dimethyl-2,6-dioxo-2,3,6,7-tetrahydro-1H-purin-8-ylamino)cyclohexanecarboxylic or (1R,3R)-3-(1-(3,4-dichlorobenzyl)-3,7-dimethyl-2,6-dioxo-2,3,6,7-tetrahydro-1H-purin-8-ylamino)cyclohexanecarboxylic acid], for which the IC50 lay in the range of 10 to 1000 nM. With `Cn1c(Nc2ccnc(C3CC(C(N)=O)C3)c2)nc2c1c(=O)n(Cc1ccc(Cl)c(Cl)c1)c(=O)n2C` (stereo not drawn) [Example 319, 3-(4-(1-(3,4-dichlorobenzyl)-3,7-dimethyl-2,6-dioxo-2,3,6,7-tetrahydro-1H-purin-8-ylamino)pyridin-2-yl)cyclobutanecarboxamide] the figure was 10 to 1000 nM; with `Cc1ccc2[nH]c(Cn3c(=O)c4c(nc(Nc5ccncc5)n4C)n(C)c3=O)cc2c1` [Example 181, 3,7-dimethyl-1-((5-methyl-1H-indol-2-yl)methyl)-8-(pyridin-4-ylamino)-1H-purine-2,6(3H,7H)-dione], 10 to 1000 nM. With `CC(=O)Nc1nc2c(c(=O)n(Cc3ccc(Cl)c(Cl)c3)c(=O)n2C)n1C` [Example 274, N-[1-[(3,4-dichlorophenyl)methyl]-3,7-dimethyl-2,6-dioxo-purin-8-yl]acetamide] the figure was 1000 to 5000 nM; with `C[C@@H](CCO)Nc1nc2c(c(=O)n(Cc3ccc(Cl)c(Cl)c3)c(=O)n2C)n1C` [Example 32, 1-[(3,4-dichlorophenyl)methyl]-8-{[(2S)-4-hydroxybutan-2-yl]amino}-3,7-dimethyl-2,3,6,7-tetrahydro-1H-purine-2,6-dione], 10 to 1000 nM. With `Cn1c(Nc2ccncn2)nc2c1c(=O)n(Cc1cc3cc(Cl)ccc3[nH]1)c(=O)n2C` [Example 208, 1-((5-chloro-1H-indol-2-yl)methyl)-3,7-dimethyl-8-(pyrimidin-4-ylamino)-1H-purine-2,6(3H,7H)-dione], the IC50 lay in the range of 10 to 1000 nM. For `Cc1ccc(Nc2nc3c(c(=O)n(Cc4cc5c(Cl)cccc5[nH]4)c(=O)n3C)n2C)nc1CCC(=O)O` [Example 377, 3-(6-(1-((4-chloro-1H-indol-2-yl)methyl)-3,7-dimethyl-2,6-dioxo-2,3,6,7-tetrahydro-1H-purin-8-ylamino)-3-methylpyridin-2-yl)propanoic acid] the value was 10 to 1000 nM; for `Cn1c(=O)n(Cc2ccc(Cl)c(Cl)c2)c(=O)c2c1ncn2CC(N)=O` [Example 246, 2-(1-(3,4-dichlorobenzyl)-3-methyl-2,6-dioxo-2,3-dihydro-1H-purin-7(6H)-yl)acetamide], over 10000 nM.

In turn, `CC(c1nc2c(c(=O)n(Cc3cc4c(Cl)cccc4[nH]3)c(=O)n2C)n1C)N(C)C` (stereo not drawn) [Example 457, 1-[(4-chloro-1H-indol-2-yl)methyl]-8-[1-(dimethylamino)ethyl]-3,7-dimethyl-purine-2,6-dione] registered a concentration for half-maximal inhibition (IC50) of 10 to 1000 nM.

`Cc1ccc2[nH]c(Cn3c(=O)c4c(nc(Nc5ncn[nH]5)n4C)n(C)c3=O)cc2c1` [Example 202, 8-(1H-1,2,4-triazol-5-ylamino)-3,7-dimethyl-1-((5-methyl-1H-indol-2-yl)methyl)-1H-purine-2,6(3H,7H)-dione] gave an IC50 of 1000 to 5000 nM.

In the case of `Cn1c(Cn2c(=O)c3c(nc(Nc4ccncn4)n3C)n(C)c2=O)cc2cc(Cl)ccc21` [Example 204, 1-((5-chloro-1-methyl-1H-indol-2-yl)methyl)-3,7-dimethyl-8-(pyrimidin-4-ylamino)-1H-purine-2,6(3H,7H)-dione], the IC50 lay in the range of 10 to 1000 nM. With `Cn1c(Nc2cnccn2)nc2c1c(=O)n(Cc1cc3c(Cl)cccc3[nH]1)c(=O)n2C` [Example 354, 1-((4-chloro-1H-indol-2-yl)methyl)-3,7-dimethyl-8-(pyrazin-2-ylamino)-1H-purine-2,6(3H,7H)-dione] the figure was 10 to 1000 nM; with `Cn1c(Nc2ccncc2)nc2c1c(=O)n(Cc1cc3ccc(Cl)cc3[nH]1)c(=O)n2C` [Example 312, 1-((6-chloro-1H-indol-2-yl)methyl)-3,7-dimethyl-8-(pyridin-4-ylamino)-1H-purine-2,6(3H,7H)-dione], 10 to 1000 nM; with `Cn1c(Nc2ccc(-c3nnn[nH]3)cc2)nc2c1c(=O)n(Cc1cc3c(Cl)cccc3[nH]1)c(=O)n2C` [Example 397, 8-((4-(1H-tetrazol-5-yl)phenyl)amino)-1-((4-chloro-1H-indol-2-yl)methyl)-3,7-dimethyl-1H-purine-2,6(3H,7H)-dione], 10 to 1000 nM.

As to `CN(C)CCNc1nc2c(c(=O)n(Cc3ccc(Cl)c(Cl)c3)c(=O)n2C)n1C` [Example 40, 1-[(3,4-dichlorophenyl)methyl]-8-{[2-(dimethylamino)ethyl]amino}-3,7-dimethyl-2,3,6,7-tetrahydro-1H-purine-2,6-dione], the IC50 was in the range of 1000 to 5000 nM.

Compound `Cc1ccc2[nH]c(Cn3c(=O)c4c(nc(Nc5cc[nH]c(=O)n5)n4C)n(C)c3=O)cc2c1` [Example 190, 3,7-dimethyl-1-((5-methyl-1H-indol-2-yl)methyl)-8-(2-oxo-1,2-dihydropyrimidin-4-ylamino)-1H-purine-2,6(3H,7H)-dione] registered an IC50 of 10 to 1000 nM. As to `Cn1c(N[C@H]2CCC[C@@H](O)C2)nc2c1c(=O)n(Cc1ccc(Cl)c(Cl)c1)c(=O)n2C` (single isomer, unassigned) [Example 78, 1-(3,4-dichlorobenzyl)-8-((1S,3R)-3-hydroxycyclohexylamino)-3,7-dimethyl-1H-purine-2,6(3H,7H)-dione or 1-(3,4-dichlorobenzyl)-8-((1R,3S)-3-hydroxycyclohexylamino)-3,7-dimethyl-1H-purine-2,6(3H,7H)-dione], the IC50 is 10 to 1000 nM. With `Cn1c(Nc2ccncc2)nc2c1c(=O)n(Cc1cc3c(Cl)ccc(F)c3[nH]1)c(=O)n2C` [Example 474, 1-((4-chloro-7-fluoro-1H-indol-2-yl)methyl)-3,7-dimethyl-8-(pyridin-4-ylamino)-1H-purine-2,6(3H,7H)-dione] the figure was 10 to 1000 nM; with `COc1ccc2[nH]c(Cn3c(=O)c4c(nc(Nc5ccncc5)n4C)n(C)c3=O)cc2c1` [Example 183, 1-((5-methoxy-1H-indol-2-yl)methyl)-3,7-dimethyl-8-(pyridin-4-ylamino)-1H-purine-2,6(3H,7H)-dione], 10 to 1000 nM; with `Cn1c(NC2CNC(=O)C2)nc2c1c(=O)n(Cc1cc3ccccc3[nH]1)c(=O)n2C` (racemic) [Example 214, (±)-1-((1H-indol-2-yl)methyl)-3,7-dimethyl-8-(5-oxopyrrolidin-3-ylamino)-1H-purine-2,6(3H,7H)-dione], 10 to 1000 nM. For `Cn1c(Nc2ccnc([C@@H]3C[C@H]3CO)c2)nc2c1c(=O)n(Cc1ccc(Cl)c(Cl)c1)c(=O)n2C` (single isomer, unassigned) [Example 338, 1-(3,4-dichlorobenzyl)-8-((2((1R,2R)-2-(hydroxymethyl)cyclopropyl)pyridin-4-yl)amino)-3,7-dimethyl-1H-purine-2,6(3H,7H)-dione or 1-(3,4-dichlorobenzyl)-8-((2-((1S,2S)-2-(hydroxymethyl)cyclopropyl)pyridin-4-yl)amino)-3,7-dimethyl-1H-purine-2,6(3H,7H)-dione] the value was 5000 to 10000 nM.

These data come from patent US12187728B2 (Raze Therapeutics, Inc., priority 2015, dated 2025).
